Assay results: patent US20120172359A1 (NOVARTIS AG, priority 2010, published 2012)
Structures can show the parent of a compound that is named as a salt.

Molecular target: Human BACE-1 (Homo sapiens, UniProt P56817)
Experiment: Test 1: Inhibition of Human BACE-1
Format: biochemical
Conditions: Test 1; recombinant BACE-1 (extracellular domain), acetate buffer pH 4.5, 1 hour with test compound at room temperature, fluorescence-quenched peptide substrate; read-out: Bace IC50

Chain of Human BACE-1 (P56817 46-457 limits assumed): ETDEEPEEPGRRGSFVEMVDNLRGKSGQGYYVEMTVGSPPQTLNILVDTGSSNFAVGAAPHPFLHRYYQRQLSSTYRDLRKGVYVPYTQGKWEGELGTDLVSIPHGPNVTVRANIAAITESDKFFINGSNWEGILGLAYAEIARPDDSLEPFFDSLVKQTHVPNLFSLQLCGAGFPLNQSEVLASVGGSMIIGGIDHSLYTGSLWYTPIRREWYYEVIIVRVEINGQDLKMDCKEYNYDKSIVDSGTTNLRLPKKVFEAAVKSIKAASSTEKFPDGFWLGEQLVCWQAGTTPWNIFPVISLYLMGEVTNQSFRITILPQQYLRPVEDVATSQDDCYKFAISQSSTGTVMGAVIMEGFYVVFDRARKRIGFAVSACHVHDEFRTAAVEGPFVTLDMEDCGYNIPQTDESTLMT

Row | Compound | IC50
1 | Cc1cnc(C(=O)Nc2ccc(F)c(C3(C)COCC(N)=N3)c2)cn1 (stereo not shown) [Example 61, 5-Methyl-pyrazine-2-carboxylic acid [3-(5-amino-3-methyl-3,6-dihydro-2H-[1,4]oxazin-3-yl)-4-fluoro-phenyl]-amide hydrochloride] | 1970 nM
2 | CC1(c2cc(NC(=O)c3ccc(C#N)cn3)ccc2F)COCC(N)=N1 (stereo not shown) [Example 62, 5-Cyano-pyridine-2-carboxylic acid [3-(5-amino-3-methyl-3,6-dihydro-2H-[1,4]oxazin-3-yl)-4-fluoro-phenyl]-amide hydrochloride] | 95 nM
3 | CC1(c2cc(NC(=O)c3ccc(C(N)=O)cn3)ccc2F)COCC(N)=N1 (stereo not shown) [Example 65, Pyridine-2,5-dicarboxylic acid 5-amide 2-{[3-(5-amino-3-methyl-3,6-dihydro-2H-[1,4]oxazin-3-yl)-4-fluoro-phenyl]-amide} hydrochloride] | 1200 nM
4 | C[C@@]1(c2cc(NC(=O)c3ccc(C#N)cn3)ccc2F)CO[C@@](C)(C(F)(F)F)C(N)=N1 [Example 73, 5-Cyano-pyridine-2-carboxylic acid [3-((3R,6R)-5-amino-3,6-dimethyl-6-trifluoro-methyl-3,6-dihydro-2H-[1,4]oxazin-3-yl)-4-fluoro-phenyl]-amide hydrochloride] | 26 nM
5 | COCCOc1cnc(C(=O)Nc2ccc(F)c([C@]3(C)CO[C@@](C)(C(F)(F)F)C(N)=N3)c2)cn1 [Example 74, 5-(2-Methoxy-ethoxy)-pyrazine-2-carboxylic acid [3-((3R,6R)-5-amino-3,6-dimethyl-6-trifluoromethyl-3,6-dihydro-2H-[1,4]oxazin-3-yl)-4-fluoro-phenyl]-amide hydrochloride] | 79 nM
6 | CC1(C)OC[C@](c2cc(NC(=O)c3ccc(C#N)cn3)ccc2F)(C(F)F)N=C1N [Example 79, 5-Cyano-pyridine-2-carboxylic acid[3-(5-amino-3-difluoromethyl-6,6-dimethyl-3,6-dihydro-2H-[1,4]oxazin-3-yl)-4-fluoro-phenyl]-amide] | 120 nM
7 | CC1(C)OCC(c2cc(NC(=O)c3ccc(Br)cn3)ccc2F)(C(F)F)N=C1N (stereo not shown) [Example 80, 5-Bromo-pyridine-2-carboxylic acid [3-(5-amino-3-difluoromethyl-6,6-dimethyl-3,6-dihydro-2H-[1,4]oxazin-3-yl)-4-fluoro-phenyl]-amide hydrochloride] | 74 nM
8 | NC1=NC(c2cc(NC(=O)c3ccc(Br)cn3)c(F)cc2F)(C(F)F)COC1 (stereo not shown) [Example 81, 5-Bromo-pyridine-2-carboxylic acid [5-(5-amino-3-difluoromethyl-3,6-dihydro-2H-[1,4]oxazin-3-yl)-2,4-difluoro-phenyl]-amide hydrochloride] | 1100 nM
9 | N#Cc1ccc(C(=O)Nc2cc(C3(C(F)F)COCC(N)=N3)c(F)cc2F)nc1 (stereo not shown) [Example 82, 5-Cyano-pyridine-2-carboxylic acid [5-(5-amino-3-difluoromethyl-3,6-dihydro-2H-[1,4]oxazin-3-yl)-2,4-difluoro-phenyl]-amide hydrochloride] | 3000 nM
10 | COc1cc(Br)cnc1C(=O)Nc1cc(C2(C(F)F)COCC(N)=N2)c(F)cc1F (stereo not shown) [Example 83, 5-Bromo-3-methoxy-pyridine-2-carboxylic acid [5-(5-amino-3-difluoromethyl-3,6-dihydro-2H-[1,4]oxazin-3-yl)-2,4-difluoro-phenyl]-amide hydrochloride] | 2900 nM
11 | NC1=NC(c2cc(NC(=O)c3ncc(Br)cc3O)c(F)cc2F)(C(F)F)COC1 (stereo not shown) [Example 84, 5-Bromo-3-hydroxy-pyridine-2-carboxylic acid [5-(5-amino-3-difluoromethyl-3,6-dihydro-2H-[1,4]oxazin-3-yl)-2,4-difluoro-phenyl]-amide hydrochloride] | 930 nM
12 | NC1=N[C@](CF)(c2cc(NC(=O)c3ccc(Cl)cn3)ccc2F)COC1 [Example 85, 5-Chloro-pyridine-2-carboxylic acid [3-((R)-5-amino-3-fluoromethyl-3,6-dihydro-2H-[1,4]oxazin-3-yl)-4-fluoro-phenyl]-amide hydrochloride] | 26 nM
13 | NC1=NC(CF)(c2cc(NC(=O)c3ccc(Br)cn3)ccc2F)COC1 (stereo not shown) [Example 86, 5-Bromo-pyridine-2-carboxylic acid [3-(5-amino-3-fluoromethyl-3,6-dihydro-2H-[1,4]oxazin-3-yl)-4-fluoro-phenyl]-amide hydrochloride] | 44 nM
14 | NC1=NC(CF)(c2cc(NC(=O)c3ccc(Cl)cn3)ccc2F)COC1 (stereo not shown) [Example 87, 5-Chloro-pyridine-2-carboxylic acid [3-(5-amino-3-fluoromethyl-3,6-dihydro-2H-[1,4]oxazin-3-yl)-4-fluoro-phenyl]-amide hydrochloride] | 57 nM
15 | NC1=NC(CF)(c2cc(NC(=O)c3ncc(Cl)cc3Cl)ccc2F)COC1 (stereo not shown) [Example 88, 3,5-Dichloro-pyridine-2-carboxylic acid [3-(5-amino-3-fluoromethyl-3,6-dihydro-2H-[1,4]oxazin-3-yl)-4-fluoro-phenyl]-amide hydrochloride] | 33 nM
16 | N#Cc1ccc(C(=O)Nc2ccc(F)c(C3(CF)COCC(N)=N3)c2)nc1 (stereo not shown) [Example 89, 5-Cyano-pyridine-2-carboxylic acid [3-(5-amino-3-fluoromethyl-3,6-dihydro-2H-[1,4]oxazin-3-yl)-4-fluoro-phenyl]-amide hydrochloride] | 94 nM
17 | Cc1cc(Br)cnc1C(=O)Nc1ccc(F)c(C2(CF)COCC(N)=N2)c1 (stereo not shown) [Example 90, 5-Bromo-3-methyl-pyridine-2-carboxylic acid [3-(5-amino-3-fluoromethyl-3,6-dihydro-2H-[1,4]oxazin-3-yl)-4-fluoro-phenyl]-amide hydrochloride] | 39 nM
18 | Cc1cc(Br)cnc1C(=O)Nc1ccc(F)c([C@]2(CF)COCC(N)=N2)c1 [Example 91, 5-Bromo-3-methyl-pyridine-2-carboxylic acid [3-((R)-5-amino-3-fluoromethyl-3,6-dihydro-2H-[1,4]oxazin-3-yl)-4-fluoro-phenyl]-amide hydrochloride] | 15 nM
19 | Cc1cc(Cl)cnc1C(=O)Nc1ccc(F)c([C@]2(CF)COCC(N)=N2)c1 [Example 92, 5-Chloro-3-methyl-pyridine-2-carboxylic acid [3-((R)-5-amino-3-fluoromethyl-3,6-dihydro-2H-[1,4]oxazin-3-yl)-4-fluoro-phenyl]-amide] | 5 nM
20 | Cl.[2H]c1nc(C(=O)Nc2ccc(F)c([C@]3(CF)COCC(N)=N3)c2)c(C([2H])([2H])[2H])c([2H])c1Cl [Example 93, 5-Chloro-4,6-dideutero-3-trideuteromethyl-pyridine-2-carboxylic acid [3-((R)-5-amino-3-fluoromethyl-3,6-dihydro-2H-[1,4]oxazin-3-yl)-4-fluoro-phenyl]-amide hydrochloride] | 8 nM
21 | NC1=N[C@](CF)(c2cc(NC(=O)c3ncc(Br)cc3O)ccc2F)COC1 [Example 94, 5-Bromo-3-hydroxy-pyridine-2-carboxylic acid [3-((R)-5-amino-3-fluoromethyl-3,6-dihydro-2H-[1,4]oxazin-3-yl)-4-fluoro-phenyl]-amide hydrochloride] | 22 nM
22 | COc1cc(Br)cnc1C(=O)Nc1ccc(F)c([C@]2(CF)COCC(N)=N2)c1 [Example 95, 5-Bromo-3-methoxy-pyridine-2-carboxylic acid [3-((R)-5-amino-3-fluoromethyl-3,6-dihydro-2H-[1,4]oxazin-3-yl)-4-fluoro-phenyl]-amide] | 390 nM
